This is an account of results in ChEMBL document CHEMBL2062379, “Cleavage mechanism and anti-tumor activity of 3,6-epidioxy-1,10-bisaboladiene isolated from edible wild plants” (Bioorg Med Chem, 2012).

Series [1] deals with Saccharomyces cerevisiae. Put plainly: Growth restoration activity in cdc2-1 rad9-deficient Saccharomyces cerevisiae assessed as growth zone at 0.05 ug/disc incubated at 37 degC for 6 hrs and 28 degC for 2 days. Format: functional.
Series [2] relates to MCF7. Put plainly: Growth inhibition of human MCF7 cells. The class given is functional.
In series [3] the test system is MDA-MB-231. Put plainly: Growth inhibition of human MDA-MB-231 cells. Format: functional.
Series [4] has as its system U-251. Put plainly: Growth inhibition of human U251 cells. The class given is functional.
Series [5] deals with SF-268. Put plainly: Growth inhibition of human SF268 cells. The class given is functional.
Series [6] relates to SF-295. Put plainly: Growth inhibition of human SF295 cells. Format: functional.
In series [7] the test system is SF-539. In words: Growth inhibition of human SF539 cells. The class given is functional.
For series [8], the system named is SNB-75. Put plainly: Growth inhibition of human SNB75 cells. Format: functional.
Series [9] deals with SNB-78. In words: Growth inhibition of human SNB78 cells. Format: functional.
For series [10], the system named is HCC 2998. In words: Growth inhibition of human HCC2998 cells. Format: functional.
The subject of series [11] is KM12. In words: Growth inhibition of human KM12 cells. The class given is functional.
Series [12] concerns HT-29. In words: Growth inhibition of human HT-29 cells. The class given is functional.
Series [13] has as its system HCT-15. In words: Growth inhibition of human HCT15 cells. The class given is functional.
For series [14], the system named is HCT-116. In words: Growth inhibition of human HCT116 cells. The class given is functional.
Series [15] relates to NCI-H23. In words: Growth inhibition of human NCI-H23 cells. The class given is functional.
Series [16] concerns NCI-H226. Put plainly: Growth inhibition of human NCI-H226 cells. Format: functional.
The test system of series [17] is NCI-H522. In words: Growth inhibition of human NCI-H522 cells. The class given is functional.
In series [18] the test system is NCI-H460. In words: Growth inhibition of human NCI-H460 cells. Format: functional.
The test system of series [19] is A549. In words: Growth inhibition of human A549 cells. The class given is functional.
In series [20] the test system is DMS-273. Put plainly: Growth inhibition of human DMS273 cells. The class given is functional.
The subject of series [21] is DMS-114. In words: Growth inhibition of human DMS114 cells. Format: functional.
Series [22] has as its system LOX IMVI. In words: Growth inhibition of human LOXIMVI cells. The class given is functional.
The test system of series [23] is OVCAR-3. In words: Growth inhibition of human OVCAR3 cells. Format: functional.
Series [24] deals with OVCAR-4. In words: Growth inhibition of human OVCAR4 cells. The class given is functional.
Series [25] deals with OVCAR-5. Put plainly: Growth inhibition of human OVCAR5 cells. The class given is functional.
Series [26] has as its system OVCAR-8. In words: Growth inhibition of human OVCAR8 cells. The class given is functional.
Series [27] deals with SK-OV-3. Put plainly: Growth inhibition of human SKOV3 cells. Format: functional.
Series [28] is described as follows: Growth inhibition of human RXF631L cells. Format: functional. The note with it: RXF 631.
The test system of series [29] is ACHN. Put plainly: Growth inhibition of human ACHN cells. The class given is functional.
The test system of series [30] is St-4. In words: Growth inhibition of human St-4 cells. The class given is functional.
Series [31] in a line: Growth inhibition of human MKN1 cells. The class given is functional. Conditions: MKN-1.
In series [32] the test system is MKN-7. Put plainly: Growth inhibition of human MKN7 cells. The class given is functional.
Series [33] relates to MKN-28. In words: Growth inhibition of human MKN28 cells. Format: functional.
Series [34] concerns MKN-45. In words: Growth inhibition of human MKN45 cells. Format: functional.
The test system of series [35] is MKN-74. In words: Growth inhibition of human MKN74 cells. The class given is functional.
The subject of series [36] is DU-145. Put plainly: Growth inhibition of human DU145 cells. Format: functional.
Series [37] has as its system PC-3. In words: Growth inhibition of human PC3 cells. The class given is functional.
In series [38] the test system is Saccharomyces cerevisiae. In words: Growth restoration activity in cdc2-1 rad9-deficient Saccharomyces cerevisiae assessed as growth zone at 12.5 to 400 ug/disc incubated at 37 degC for 6 hrs and 28 degC for 2 days. Format: functional, organism-based.
The subject of series [39] is Saccharomyces cerevisiae. Put plainly: Growth restoration activity in cdc2-1 rad9-deficient Saccharomyces cerevisiae assessed as growth zone at 400 ug/disc. The class given is functional, organism-based.
Series [40] deals with HL-60. In words: Cytotoxicity against human HL60 cells after 48 hrs by MTT assay. The class given is functional, cell-based. The note with it: HL-60, 48 h. Background: Tetrazolium assays rely on reduction of a dye to a coloured formazan, in cell work by metabolically active cells.
In series [41] the test system is HL-60. Put plainly: Induction of apoptosis in human HL60 cells assessed as caspase 3/7 activation at 1 uM after 12 hrs by spectrophotometric analysis. Format: functional, cell-based.
Series [42] deals with HL-60. Put plainly: Induction of apoptosis in human HL60 cells assessed as caspase 8 activation at 1 uM after 12 hrs by spectrophotometric analysis. The class given is functional, cell-based.
Series [43] deals with HL-60. In words: Induction of apoptosis in human HL60 cells assessed as caspase 9 activation at 1 uM after 12 hrs by spectrophotometric analysis. Format: functional, cell-based.
Series [44] concerns HL-60. Put plainly: Induction of apoptosis in human HL60 cells assessed as caspase 3/7 activation after 1 to 3 hrs by spectrophotometric analysis. The class given is functional, cell-based.
Series [45] deals with HL-60. In words: Induction of apoptosis in human HL60 cells assessed as caspase 8 activation after 1 to 3 hrs by spectrophotometric analysis. The class given is functional, cell-based.
In series [46] the test system is HL-60. In words: Induction of apoptosis in human HL60 cells assessed as caspase 9 activation after 1 to 3 hrs by spectrophotometric analysis. The class given is functional, cell-based.
Series [47] concerns HL-60. Put plainly: Cytotoxicity against human HL60 cells after 48 hrs by MTT assay in absence of DFOM. The class given is functional, cell-based. Conditions: HL-60, 48 h.
Series [48] deals with HL-60. Put plainly: Cytotoxicity against human HL60 cells after 48 hrs by MTT assay in presence of DFOM. Format: functional, cell-based. The note with it: HL-60, 48 h.
Series [49] concerns HL-60. Put plainly: Ratio of IC50 for human HL60 cells in presence of DFOM to IC50 for human HL60 cells in absence of DFOM. The class given is functional.
The nature of series [50]: Growth inhibition of human HBC4 cells. The class given is functional.
The nature of series [51]: Growth inhibition of human BSY1 cells. Conditions: BSY-1. The class given is functional.
Series [52] in a line: Growth inhibition of human HBC5 cells. Format: functional.
For series [53], the system named is HL-60. Put plainly: Induction of apoptosis in human HL60 cells assessed as caspase 3/7 activation at 200 uM after 1 hrs by spectrophotometric analysis. Format: functional, cell-based.
The test system of series [54] is HL-60. In words: Induction of apoptosis in human HL60 cells assessed as caspase 8 activation at 200 uM after 1 hrs by spectrophotometric analysis. Format: functional, cell-based.
Series [55] has as its system HL-60. Put plainly: Induction of apoptosis in human HL60 cells assessed as caspase 9 activation at 200 uM after 1 hrs by spectrophotometric analysis. The class given is functional, cell-based.
The nature of series [56]: Drug metabolism in buffer at pH 8 after 24 hrs by HPLC analysis in presence of […]. The note with it: pH 8, 24 h. The class given is physicochemical.
The test system of series [57] is Saccharomyces cerevisiae. Put plainly: Growth restoration activity in cdc2-1 rad9-deficient Saccharomyces cerevisiae assessed as growth zone at 5 ug/disc incubated at 37 degC for 6 hrs and 28 degC for 2 days. Format: functional, organism-based.
Series [58] deals with HL-60. In words: Cytotoxicity against human HL60 cells at 80 uM after 48 hrs by MTT assay. The class given is functional, cell-based.
In series [59] the test system is Saccharomyces cerevisiae. Put plainly: Growth restoration activity in cdc2-1 rad9-deficient Saccharomyces cerevisiae assessed as growth zone at 10 ug/disc incubated at 37 degC for 6 hrs and 28 degC for 2 days. Format: functional.

Active and inactive are the calls of the source. No cut-off for these calls is given here.

For `COc1c(C)c2c(c(O)c1C/C=C(\C)CCC(=O)O)C(=O)OC2` [MYCOPHENOLIC ACID], the Activity in [1] was 18.5 mm.

The term GI50 denotes the concentration that inhibits growth by half. A lower GI50 goes with more potent growth inhibition. For orientation: IC50 means the concentration needed to halve the response being measured. As for `C[C@H]1[C@@H](O)O[C@@H]2O[C@@]3(C)CC[C@H]4[C@H](C)CC[C@@H]1[C@@]24OO3` [ARTENIMOL], the GI50 is 6.17 µM in series [2]; 19.1 µM in [3]; 3.31 µM in [4]; 20.9 µM in [5]; 15.5 µM in series [6]; 9.77 µM in series [7]. The GI50 in series [8] is 11.7 µM; in series [9] it was 8.32 µM; in [10] it was 14.8 µM; in series [11] it was 6.03 µM; in series [12], 4.37 µM; in [13] it was 0.912 µM. Besides, the GI50 in [14] is 1.35 µM; in series [15], 6.17 µM; in [16], 15.8 µM; in series [17], 2.29 µM; in series [18] it was 7.41 µM; in [19], 15.5 µM. Moreover, the GI50 was 4.47 µM in [20]; 1.58 µM in [21]; 3.16 µM in [22]; 10.2 µM in series [23]; 12.9 µM in series [24]; 12.9 µM in series [25]. Moreover, the GI50 in series [26] is 4.17 µM; in [27] it was 10.2 µM; in [28], 25.7 µM; in series [29], 7.08 µM; in series [30] it was 5.37 µM; in series [31], 3.89 µM. The GI50 in [32] is 3.02 µM; in [33] it was 4.57 µM; in series [34] it was 5.25 µM; in series [35], 3.98 µM; in series [36], 18.6 µM; in [37], 3.16 µM. Further, the GI50 in series [50] is 2.04 µM; in series [51], 11.2 µM; in series [52], 5.37 µM. Also, the outcome in [38] and in series [39] was inactive. Also, the IC50 in series [40] is 0.26 µM; in series [47], 0.18 µM; in series [48], above 20 µM. Also, the outcome in [41], in [42] and in series [43] was Active. The Activity entry in series [44], in series [45] and in series [46] was “Dose-dependent effect” in each case. For the same molecule, the “Ratio IC50” value in [49] is above 100.

For `CC(C)=CCC[C@@H](C)c1ccc(C)cc1`, the result in series [39] was inactive. The IC50 turned out to be 109 µM in series [40], 107 µM in series [47] and 147 µM in series [48]. Also, the outcome in series [53], in series [54] and in [55] was Active. Besides, the Drug metabolism entry in series [56] was “Not Active”.

Turning to `CC(C)=CCCC(C)[C@@]12CC[C@]3(C)O[C@@H]3[C@@H]1O2` (relative stereo), the result in series [57] and in series [58] was inactive.

Consider `NC(=O)NO` [HYDROXYUREA], for which the Activity in series [59] turned out to be 14.3 mm.
